According to patent US5620864A, “Acceptor for fucosyl transferase” (Health Research, Inc., priority 1992, dated 1997):
Where “and” joins values, the source holds several entries; their conditions need not be identical. Identical values can stand only once.

What was measured:
[1] = molecular target: T1, serum α1,3-L-fucosyltransferase (Homo sapiens, UniProt P51993); test: Assay of α1,3-fucosyltransferase with various synthetic acceptors, ovarian cancer sera as enzyme source; assay type: biochemical
T1 construct: Sera were collected from healthy females and ovarian cancer patients; from tissue; host or cells: blood serum of ovarian cancer patients and healthy females
T1 sequence (P51993 35-359 limits assumed): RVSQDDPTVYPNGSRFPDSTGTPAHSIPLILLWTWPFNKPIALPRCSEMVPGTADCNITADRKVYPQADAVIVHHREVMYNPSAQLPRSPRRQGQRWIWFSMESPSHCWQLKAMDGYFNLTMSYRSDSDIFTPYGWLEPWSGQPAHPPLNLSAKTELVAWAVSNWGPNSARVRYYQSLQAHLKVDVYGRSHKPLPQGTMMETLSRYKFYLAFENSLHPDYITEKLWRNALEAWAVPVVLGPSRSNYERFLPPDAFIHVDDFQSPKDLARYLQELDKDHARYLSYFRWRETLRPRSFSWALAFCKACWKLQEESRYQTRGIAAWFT
Experimental: (§1) Sera were collected from healthy females and ovarian cancer patients admitted to Roswell Park Cancer Institute in Buffalo, N.Y., USA. Ovarian tumor tissues were obtained during surgical procedures from patients with ovarian cancer. Both sera and tissues were stored frozen at -70° C. until use.
(§2) An incubation mixture contained 50 mM HEPES-NaOH, pH 7.5, 5 mM MnC12, 7 mM ATP, 3 mM NaN3, the acceptor 0.3 mM (for serum enzyme) or 3.0 mM (for tumor enzyme), 0.125 μCi of GDP-[U-^14 C] Fuc (Sp. Act. 216 mCi/mmol) and enzyme in a total volume of 0.10 ml; the control incubation mixture had everything except the acceptor. At the end of incubation at 37° C. for 18 h, the mixture was diluted with 1 ml water and passed through Dowex-1-C1 column (1 ml in a Pasteur pipet). The column was washed twice with 1 ml water; the breakthrough and wash, which contained the [^14 C] fucosylated neutral acceptor, were collected together in a scintillation vial and counted for radioactivity using the scintillation coctail 3a70 (Research Products International, Mount Prospects, Ill.) and Beckman LS9000. The Dowex column was then eluted successively with 3 ml each of 0.1M and 0.2M NaCl; these eluates which contained the [^14 C] fucosylated sulfated acceptors, were counted for radioactivity as before. Corrections were made by subtracting the radioactivity in the water and NaCl eluates of the control incubation mixture from the corresponding test fractions. The duplicate runs of samples gave almost identical values, the difference being <5%.
The activity of serum α1,3-fucosyltransferase was measured with the specific substrate 2'-methyl LacNAc and compared with the ability of several other synthetic substrates to act as an acceptor of fucose.
When the structure of the acceptor 2'-methyl LacNAc was modified by replacing the methyl group with sulfate group in C-2', 3', 6' or 6 position and tested their ability to act as the acceptor of fucose, the following novel findings emerged. […] The β-benzyl glycoside of 3' sulfo LacNAc was quite active (168.4%) but less than the parent compound.

[2] = tested on: serum α1,3-L-fucosyltransferase; test: Acceptor ability in presence of the competitive substrate (3'-sulfo LacNAc vs 2'-methyl LacNAc), ovarian cancer sera; assay type: biochemical, human
Experimental: as §2
(§3) The superiority of 3'-sulfo LacNAc over 2'-methyl LacNAc as the substrate for measuring serum α1,3 fucosyltransferase was tested in three different ways. First, the incubation mixtures in duplicate contained 0.3 mM 3'-sulfo LacNAc and varying amounts of 2'-methyl LacNAc (0 to 7.5 mM); the incorporation of [^14 C] fucose by the serum enzyme into both substrates was measured (Table III). The incorporation of [^14 C] fucose into 3'-sulfo LacNAc decreased and into 2'-methyl LacNAc increased with the increase in the concentration of the latter. […] 25 fold less than 2' methyl LacNAc. Secondly, the incubation mixtures in duplicate contained 3.0 mM 2'-methyl LacNAc and varying amounts of 3'-sulfo LacNAc (0 to 0.75 mM); the incorporation of [^14 C] fucose by the same serum enzyme into both substrates was measured (Table III). The [^14 C] fucose incorporation into 2'-methyl LacNAc decreased and into 3'-sulfo LacNAc increased by increasing the concentration of the latter. […] Thirdly, both 2'-methyl LacNAc and 3'-sulfo LacNAc at 0.3 mM concentration were incubated separately in duplicates with six ovarian cancer sera and one normal serum; the incorporation of [^14 C] fucose into these acceptors were quantitated (Table IV). The [^14 C] fucose incorporation into 3'-sulfo LacNAc was consistently higher (4-5 fold) than that into 2'-methyl LacNAc, including the assay of the normal serum. […] These values indicate that 3'-sulfo LacNAc is a very high affinity acceptor for α1,3 fucosyltransferase. The [^14 C] fucosylated product arising from 3'-sulfo LacNAc has been tentatively identified as 3'-sulfo, 3-fucosyl LacNAc by comparing strictly its mobility on paper with the synthetic authentic compound 3'-sulfo, 3-fucosyl LacNAc (see FIG. 5).

[3] = molecular target: T1, serum α1,3-L-fucosyltransferase; test: Detection of serum α1,3-L-fucosyltransferase in six ovarian cancer sera and one normal serum; assay type: biochemical; conditions: for percentage of the ratio between the CPM obtained for cancer serum and normal serum: acceptor 0.30 mM
Experimental: as §1, §2, §3

[4] = tested on: α1,3-L-fucosyltransferase of the particulate fraction of ovarian tumor; test: Assay of α1,3-fucosyltransferase with synthetic acceptors, ovarian tumor particulate fraction; assay type: biochemical, human
Experimental: FIG. 2 The scheme for the preparation of the particulate and soluble fractions of human ovarian tumor.
as §2
This finding is quite different from what we found with the soluble fraction, where α1,4-fucosyltransferase activity seems to be greater than α1,3-fucosyltransferase activity. […] The different nature of the above enzymes was made further clear, when sulfated derivatives of LacNAc was tested as acceptors.

[5] = 2'-methyl LacNAc = 100, listed as 3'-Sulfo LacNAc
[6] = 2'-methyl LacNAc = 100, listed as 3'-sulfo LacNAc

SMILES: CC(=O)N[C@H]1C(O)O[C@H](CO)[C@@H](O[C@@H]2O[C@H](CO)[C@H](O)[C@H](OS(=O)(=O)O)[C@H]2O)[C@@H]1O (stereo partly drawn) [3'-Sulfo-LacNAc, SODIUM β-D-GALACTOPYRANOSYL 3-SULFATE-(1→4)-2-ACETAMIDO-2-DEOXY-D-GLUCOPYRANOSE]
- Relative Percent ([1]; 2'-methyl LacNAc = 100): 340.8%
- Relative Percent [1, 5]: 340.8%
- Relative Percent [1, 6]: 340.8%
- Relative Percent ([1]; 2'-methyl LacNAc = 100, listed as 3'-sulfo-LacNAc): 340%
- [14C] Fucose Incorporated (CPM) ([1]; acceptor 0.3 mM, 37° C. 18 h): 5894 CPM
- Incorporation of [14C] Fucose (CPM) ([2]; 2'-Methyl LacNAc 3.0 mM + 3'-Sulfo LacNAc 0 mM): 140 CPM
- Incorporation of [14C] Fucose (CPM) ([2]; 2'-Methyl LacNAc 3.0 mM + 3'-Sulfo LacNAc 0.15 mM): 1294 CPM
- Incorporation of [14C] Fucose (CPM) ([2]; 2'-Methyl LacNAc 3.0 mM + 3'-Sulfo LacNAc 0.30 mM): 2181 CPM
- Incorporation of [14C] Fucose (CPM) ([2]; 2'-Methyl LacNAc 3.0 mM + 3'-Sulfo LacNAc 0.45 mM): 2417 CPM
- Incorporation of [14C] Fucose (CPM) ([2]; 2'-Methyl LacNAc 3.0 mM + 3'-Sulfo LacNAc 0.65 mM): 2373 CPM
- Incorporation of [14C] Fucose (CPM) ([2]; 2'-Methyl LacNAc 3.0 mM + 3'-Sulfo LacNAc 0.75 mM): 2560 CPM
- Incorporation of [14C] Fucose (CPM) ([2]; 3'-Sulfo LacNAc 0.3 mM + 2'-Methyl LacNAc 0 mM): 2520 CPM
- Incorporation of [14C] Fucose (CPM) ([2]; 3'-Sulfo LacNAc 0.3 mM + 2'-Methyl LacNAc 1.5 mM): 2132 CPM
- Incorporation of [14C] Fucose (CPM) ([2]; 3'-Sulfo LacNAc 0.3 mM + 2'-Methyl LacNAc 3.0 mM): 1872 CPM
- Incorporation of [14C] Fucose (CPM) ([2]; 3'-Sulfo LacNAc 0.3 mM + 2'-Methyl LacNAc 4.5 mM): 1748 CPM
- Incorporation of [14C] Fucose (CPM) ([2]; 3'-Sulfo LacNAc 0.3 mM + 2'-Methyl LacNAc 6.0 mM): 1712 CPM
- Incorporation of [14C] Fucose (CPM) ([2]; 3'-Sulfo LacNAc 0.3 mM + 2'-Methyl LacNAc 7.5 mM): 1428 CPM
- inhibition of the [14C] fucose incorporation into 2'-methyl LacNAc ([2]; 3'-Sulfo LacNAc 0.75 mM, 2'-methyl LacNAc 3.0 mM): 68%
- Km ([2]; 3'-sulfo LacNAc in presence of 3.0 mM 2'-methyl LacNAc, serum enzyme): 120 µM
- Incorporation of [14C] Fucose (CPM) into the Acceptor (0.30 mM) ([3]; Normal Serum): 1543 CPM
- Ratio B/A (CPM into 3'-Sulfo LacNAc / CPM into 2'-Methyl LacNAc) ([3]; Normal Serum): 3.89
- Incorporation of [14C] Fucose (CPM) into the Acceptor (0.30 mM) ([3]; Ovarian Cancer Serum 1): 7310 CPM
- Ratio B/A (CPM into 3'-Sulfo LacNAc / CPM into 2'-Methyl LacNAc) ([3]; Ovarian Cancer Serum 1): 5.52
- percentage of the ratio between the CPM obtained for cancer serum and normal serum ([3]; Ovarian Cancer Serum 1): 474%
- Incorporation of [14C] Fucose (CPM) into the Acceptor (0.30 mM) ([3]; Ovarian Cancer Serum 2): 9816 CPM
- Ratio B/A (CPM into 3'-Sulfo LacNAc / CPM into 2'-Methyl LacNAc) ([3]; Ovarian Cancer Serum 2): 6.69
- percentage of the ratio between the CPM obtained for cancer serum and normal serum ([3]; Ovarian Cancer Serum 2): 636%
- Incorporation of [14C] Fucose (CPM) into the Acceptor (0.30 mM) ([3]; Ovarian Cancer Serum 3): 5261 CPM
- Ratio B/A (CPM into 3'-Sulfo LacNAc / CPM into 2'-Methyl LacNAc) ([3]; Ovarian Cancer Serum 3): 3.87
- percentage of the ratio between the CPM obtained for cancer serum and normal serum ([3]; Ovarian Cancer Serum 3): 341%
- Incorporation of [14C] Fucose (CPM) into the Acceptor (0.30 mM) ([3]; Ovarian Cancer Serum 4): 5480 CPM
- Ratio B/A (CPM into 3'-Sulfo LacNAc / CPM into 2'-Methyl LacNAc) ([3]; Ovarian Cancer Serum 4): 4.06
- percentage of the ratio between the CPM obtained for cancer serum and normal serum ([3]; Ovarian Cancer Serum 4): 355%
- Incorporation of [14C] Fucose (CPM) into the Acceptor (0.30 mM) ([3]; Ovarian Cancer Serum 5): 3088 CPM
- Ratio B/A (CPM into 3'-Sulfo LacNAc / CPM into 2'-Methyl LacNAc) ([3]; Ovarian Cancer Serum 5): 4.42
- percentage of the ratio between the CPM obtained for cancer serum and normal serum ([3]; Ovarian Cancer Serum 5): 200%
- Incorporation of [14C] Fucose (CPM) into the Acceptor (0.30 mM) ([3]; Ovarian Cancer Serum 6): 5483 CPM
- Ratio B/A (CPM into 3'-Sulfo LacNAc / CPM into 2'-Methyl LacNAc) ([3]; Ovarian Cancer Serum 6): 5.62
- percentage of the ratio between the CPM obtained for cancer serum and normal serum ([3]; Ovarian Cancer Serum 6): 355%
- sensitivity / [14C] fucose incorporation relative to 2'-methyl LacNAc ([3]; blood sera, acceptors 0.3 mM): 3 to 5 fold and 4-5 fold
- α1,3 fucosyltransferase activity of the cancer sera as compared to the normal serum ([3]; range over six ovarian cancer sera, acceptor 0.3 mM): 200%-636%
- Relative Percent ([4]; 2'-methyl LacNAc = 100): 39.0%
- Relative Percent [4, 5]: 39%
- Relative Percent [4, 6]: 39.0%
- [14C] Fucose Incorporated (CPM) ([4]; acceptor 3.0 mM, 37° C. 18 h): 18793 CPM
